In ChEMBL document CHEMBL6120971 (J Med Chem, 2024):
Active and inactive are the calls of the source. No cut-off for these calls is given here.

How the values were obtained:
[1] = Toxicity in BALB/c nude mouse xenografted with human MKN-45 cells assessed as body weight loss at 10 to 40 mg/kg, po administered once daily for 21 days; format: organism-based; conditions: in vivo, 504 h, dose 10-40 mg/kg, time 21 day
[2] = Toxicity in BALB/c nude mouse xenografted with human MKN-45 cells assessed as effect on liver morphology at 10 to 40 mg/kg, po administered once daily for 21 days by H and E staining based analysis; format: organism-based; conditions: in vivo, 504 h, dose 10-40 mg/kg, time 21 day
[3] = Toxicity in BALB/c nude mouse xenografted with human MKN-45 cells assessed as effect on lung morphology at 10 to 40 mg/kg, po administered once daily for 21 days by H and E staining based analysis; format: organism-based; conditions: in vivo, 504 h, dose 10-40 mg/kg, time 21 day
[4] = biological target: T1, Protein cereblon/Hepatocyte growth factor receptor (Homo sapiens, UniProt P08581+Q96SW2); test: PROTAC activity at CRBN/c-MET in human MKN-45 cells assessed as induction of c-MET degradation at 100 nM preincubated with MG132 for 2 hrs followed by compound addition and measured after 24 hrs by Western blot analysis; format: cell-based
T1 sequence (P08581 25-1390 limits assumed): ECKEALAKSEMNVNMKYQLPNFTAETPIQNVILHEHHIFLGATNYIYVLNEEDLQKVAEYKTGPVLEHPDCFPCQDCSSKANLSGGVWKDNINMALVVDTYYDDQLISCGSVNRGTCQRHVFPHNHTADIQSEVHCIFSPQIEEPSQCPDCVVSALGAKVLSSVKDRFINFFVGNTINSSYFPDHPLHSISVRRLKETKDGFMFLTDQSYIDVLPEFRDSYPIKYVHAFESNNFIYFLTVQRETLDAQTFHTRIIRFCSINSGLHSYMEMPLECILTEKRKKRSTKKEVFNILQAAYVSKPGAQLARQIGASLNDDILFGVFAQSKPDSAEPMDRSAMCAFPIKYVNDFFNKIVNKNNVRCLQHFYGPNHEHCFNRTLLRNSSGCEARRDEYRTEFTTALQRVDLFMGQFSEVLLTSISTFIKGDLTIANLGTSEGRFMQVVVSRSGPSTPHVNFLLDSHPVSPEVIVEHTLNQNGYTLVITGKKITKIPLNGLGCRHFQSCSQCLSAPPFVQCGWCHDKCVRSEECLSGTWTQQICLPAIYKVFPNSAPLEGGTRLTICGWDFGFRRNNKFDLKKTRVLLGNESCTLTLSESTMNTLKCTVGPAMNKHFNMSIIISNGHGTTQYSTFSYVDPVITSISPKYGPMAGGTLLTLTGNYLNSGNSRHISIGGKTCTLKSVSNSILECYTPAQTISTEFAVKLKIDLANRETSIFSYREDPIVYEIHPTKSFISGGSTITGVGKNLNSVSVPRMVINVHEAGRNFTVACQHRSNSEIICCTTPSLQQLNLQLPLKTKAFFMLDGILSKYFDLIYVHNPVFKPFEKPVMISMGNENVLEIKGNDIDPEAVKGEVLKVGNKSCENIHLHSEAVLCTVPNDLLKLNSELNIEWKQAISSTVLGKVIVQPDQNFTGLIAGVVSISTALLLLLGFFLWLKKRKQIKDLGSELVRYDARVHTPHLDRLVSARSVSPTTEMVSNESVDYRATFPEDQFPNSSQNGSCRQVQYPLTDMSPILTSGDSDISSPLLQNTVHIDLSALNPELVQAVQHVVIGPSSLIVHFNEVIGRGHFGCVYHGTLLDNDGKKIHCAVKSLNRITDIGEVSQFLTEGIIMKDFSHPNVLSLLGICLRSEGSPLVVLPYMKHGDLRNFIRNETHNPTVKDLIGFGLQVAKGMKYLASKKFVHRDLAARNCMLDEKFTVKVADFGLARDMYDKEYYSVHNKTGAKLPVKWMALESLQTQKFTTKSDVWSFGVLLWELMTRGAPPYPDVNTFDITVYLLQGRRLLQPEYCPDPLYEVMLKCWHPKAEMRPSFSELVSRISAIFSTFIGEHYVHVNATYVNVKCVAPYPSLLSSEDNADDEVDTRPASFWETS
T1 sequence (Q96SW2 whole entry partner): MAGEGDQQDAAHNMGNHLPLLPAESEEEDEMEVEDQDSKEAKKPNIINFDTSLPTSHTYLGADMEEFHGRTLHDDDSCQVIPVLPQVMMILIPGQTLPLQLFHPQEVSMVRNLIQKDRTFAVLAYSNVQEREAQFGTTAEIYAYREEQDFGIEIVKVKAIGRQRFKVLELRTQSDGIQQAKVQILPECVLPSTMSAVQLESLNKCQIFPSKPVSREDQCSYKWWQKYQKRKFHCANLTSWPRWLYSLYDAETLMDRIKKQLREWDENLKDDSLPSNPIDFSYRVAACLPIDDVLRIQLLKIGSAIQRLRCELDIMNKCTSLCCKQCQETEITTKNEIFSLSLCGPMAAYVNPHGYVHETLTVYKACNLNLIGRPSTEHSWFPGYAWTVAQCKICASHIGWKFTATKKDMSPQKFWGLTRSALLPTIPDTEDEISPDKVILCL

[5] = test system: PC-9; test: Cell cycle arrest in human PC-9 cells assessed as accumulation of cells at G0/G1 phase incubated for 48 hrs by PI staining based flow cytometric analysis; format: functional; conditions: dose 3.125-50 nM
[6] = test system: MKN-45; test: Upregulation of HSPG2 protein level in human MKN-45 cells at 100 nM incubated for 24 hrs by MS-based quantitative proteomics analysis; format: functional, cell-based
[7] = biological target: T1, Protein cereblon/Hepatocyte growth factor receptor; test: PROTAC activity at CRBN/c-MET in human MKN-45 cells assessed as induction of c-MET degradation at 100 nM preincubated with pomalidomide for 2 hrs followed by compound addition and measured after 24 hrs by Western blot analysis; format: cell-based
[8] = Toxicity in BALB/c nude mouse xenografted with human MKN-45 cells assessed as effect on heart morphology at 10 to 40 mg/kg, po administered once daily for 21 days by H and E staining based analysis; format: organism-based; conditions: in vivo, 504 h, dose 10-40 mg/kg, time 21 day
[9] = test system: PC-9; test: Induction of apoptosis in human PC-9 cells at 3.125 to 50 nM incubated for 48 hrs by Annexin V-FITC/PI staining based flow cytometric analysis; format: functional, cell-based; conditions: dose 3.125-50 nM
[10] = AUC (0 to infinity) in male Sprague-Dawley rat at 10 mg/kg, iv measured after 24 hrs by LC-MS/MS analysis; format: ADME, organism-based; conditions: in vivo
[11] = test system: Hs746T; test: Inhibition of c-MET/Akt signaling pathway activation in human Hs746T cells at 12.5 to 200 nM incubated for 24 hrs by Western blot analysis; format: cell-based; conditions: dose 12.5-200 nM
[12] = biological target: T1, Protein cereblon/Hepatocyte growth factor receptor; test: PROTAC activity at CRBN/c-MET in human MKN-45 cells assessed as induction of c-MET degradation at 100 to 1000 nM incubated for 24 hrs by Western blot analysis relative to control; format: cell-based; conditions: dose 100-1000 nM
[13] = AUC (0 to infinity) in male Sprague-Dawley rat at 10 mg/kg, po measured after 24 hrs by LC-MS/MS analysis; format: ADME, organism-based; conditions: in vivo
[14] = Downregulation of c-MET protein level in human MKN-45 cells assessed as fold change at 100 nM incubated for 24 hrs by MS-based quantitative proteomics analysis relative to control; format: functional
[15] = Half-life in male Sprague-Dawley rat at 10 mg/kg, po measured after 24 hrs by LC-MS/MS analysis; format: ADME, organism-based; conditions: in vivo
[16] = test system: Mus musculus; test: Downregulation of c-MET protein level in BALB/c nude mouse liver xenografted with human MKN-45 cells at 10 mg/kg, po measured after 48 hrs by Western blot analysis; format: functional, organism-based
[17] = test system: MKN-45; test: Downregulation of SLC7A1 protein level in human MKN-45 cells at 100 nM incubated for 24 hrs by MS-based quantitative proteomics analysis; format: functional, cell-based
[18] = Oral bioavailability in male Sprague-Dawley rat at 10 mg/kg measured after 24 hrs by LC-MS/MS analysis; format: ADME, organism-based; conditions: in vivo

- Activity [4]: inactive
- Activity [7]: inactive
- AUC(0-inf) [10]: 2520 ng·h/mL
- Activity [12]: 100%
- AUC(0-inf) [13]: 411 ng·h/mL
- half-life [15]: 4.13 h
- bioavailability [18]: 16.3%
SMILES: O=C1CCC(N2C(=O)c3ccc(N4CCN(CC5CCN(C(=O)c6ccc(-c7cnc8ncc(Cc9ccc%10ncccc%10c9)n8n7)cc6F)CC5)CC4)cc3C2=O)C(=O)N1 (stereo not drawn)
- Activity [1]: Non-toxic
- Activity [2]: Non-toxic
- Activity [3]: Non-toxic
- Activity [5]: Dose-dependent-effect
- Activity [6]: Active
- Activity [8]: Non-toxic
- Activity [9]: Active; Little Effect Observed
- inhibition [11]: Active
- fold change (FC) [14]: 29.6
- Activity [16]: Not active; Favorable Tissue Specificity Of Compound Observed
- Activity [17]: Active
